Measured values from patent US6548476B1, “Dimeric inhibitors of influenza neuraminidase” (priority 1999, dated 2003).
Values after ≈ are worked out from the molar mass of the structure shown. Where two headings read alike, the source gives them in different places.

Columns and labels:
[1] = test system: MDCK cells; assay: Minimum cytotoxic drug concentration in the MDCK cell replication assay
[2] = test system: influenza A virus; assay: Inhibition of influenza A virus replication (cytopathic effect) in MDCK cells; details: for ID50: MDCK cells, influenza A virus
[3] = Cytotoxicity (CC50) in the CPE type assay of Example 7; assay type: cell-based; details: CPE assay of Example 7; three separate experiments (test 1-3)
[4] = test system: influenza A/Victoria/3/75 B010; assay: Inhibition of influenza A/Victoria/3/75 B010 replication, standard CPE type assay; assay type: cell-based; details: for EC50: three separate experiments (test 1-3)
[5] = test system: MDCK cells; details: dog

Structure (SMILES) | MTC [1] [µg/mL] | ID50 (μg of (A)) [2] | ID50 [2] [µg/mL] | CC50 [3] [µg/mL] | EC90 ([4]; test 1) [µg/mL] | EC50 [4] [µg/mL] | MTC [5] [µg/mL] | EC50 ([4]; Influenza A virus, read-out: EC50) [µg/mL]
CC(=O)N[C@H]1[C@H]([C@H](OC(=O)NCCCCCCNC(=O)CNC(=O)CNC(=O)CNC(=O)NCCCCCCNC(=O)NCC(=O)NCC(=O)NCC(=O)NCCCCCCNC(=O)O[C@@H]([C@@H]2OC(C(=O)O)=C[C@H](NC(=N)N)[C@H]2NC(C)=O)[C@H](O)CO)[C@H](O)CO)OC(C(=O)O)=C[C@@H]1NC(=N)N [(4)] | >10 | 0.11 μg of (A) | 0.084 (≈ 0.0576 µM) | – | – | – | – | –
CC(=O)N[C@H]1[C@H]([C@H](OC(=O)NCCCCCCNC(=O)CN(CCN(CC(=O)O)CC(=O)NCCCCCCNC(=O)O[C@@H]([C@@H]2OC(C(=O)O)=C[C@H](NC(=N)N)[C@H]2NC(C)=O)[C@H](O)CO)CC(=O)O)[C@H](O)CO)OC(C(=O)O)=C[C@@H]1NC(=N)N [Compound 8, Bis-[7-(6′-methyleneamine-N-acetic acid-N-acetamido-hexyl)-carbamoyloxy-5-acetamido-4-guanidino-2,3,4,5-tetradeoxy-D-glycero-D-galacto-non-2-enopyranosonic acid]] | – | – | – | >0.1 | 0.0671 (≈ 0.0557 µM) | 0.00971 (≈ 0.00806 µM) | – | –
CC(=O)N[C@H]1[C@H]([C@H](OC(=O)NCCCCCCNC(=O)NCCCCNC(=O)NCCCCCCNC(=O)O[C@@H]([C@@H]2OC(C(=O)O)=C[C@H](NC(=N)N)[C@H]2NC(C)=O)[C@H](O)CO)[C@H](O)CO)OC(C(=O)O)=C[C@@H]1NC(=N)N [(2)] | >10 | 0.013 μg of (A) | 0.007 (≈ 0.00643 µM) | – | – | – | – | –
CC(=O)N[C@H]1[C@H]([C@H](OC(=O)NCCCCCCN)[C@H](O)CO)OC(C(=O)O)=C[C@@H]1NC(=N)N [(7), 5-acetamido-7-(6′-aminohexyl)-carbamoyloxy-4-guanidino-2,3,4,5-tetradeoxy-D-glycero-D-galacto-non-2-enopyranosonic acid, reference compound] | – | 0.32 μg of (A) | 0.22 (≈ 0.464 µM) | – | – | – | >10 | –
CC(=O)N[C@H]1[C@H]([C@H](OC(=O)NCCCCCCNC(=O)CCCCCNC(=O)CCCCCNC(=O)CCCCCNC(=O)CCCCCNC(=O)NCCCCCCNC(=O)NCCCCCC(=O)NCCCCCC(=O)NCCCCCC(=O)NCCCCCC(=O)NCCCCCCNC(=O)O[C@@H]([C@@H]2OC(C(=O)O)=C[C@H](NC(=N)N)[C@H]2NC(C)=O)[C@H](O)CO)[C@H](O)CO)OC(C(=O)O)=C[C@@H]1NC(=N)N [(6)] | >10 | 0.62 μg of (A) | 0.63 (≈ 0.311 µM) | – | – | – | – | –
CC(=O)N[C@H]1[C@H]([C@H](OC(=O)NCCCCCCNC(=O)NCCCCCCCCCCCCNC(=O)NCCCCCCNC(=O)O[C@@H]([C@@H]2OC(C(=O)O)=C[C@H](NC(=N)N)[C@H]2NC(C)=O)[C@H](O)CO)[C@H](O)CO)OC(C(=O)O)=C[C@@H]1NC(=N)N [(3), Bis-[7-(6′-hexyleneureodo)-carbamoyloxy-5-acetamido-4-guanidino-2,3,4,5-tetradeoxy-D-glycero-D-galacto-non-2-enopyranosonic acid]] | >10 | 0.028 μg of (A) | 0.017 (≈ 0.0142 µM) | – | – | – | – | –
CC(=O)N[C@H]1[C@H]([C@H](OC(=O)NCCCCCCNC(=O)CCCCCNC(=O)CCCCCNC(=O)NCCCCCCCCCCCCNC(=O)NCCCCCC(=O)NCCCCCC(=O)NCCCCCCNC(=O)O[C@@H]([C@@H]2OC(C(=O)O)=C[C@H](NC(=N)N)[C@H]2NC(C)=O)[C@H](O)CO)[C@H](O)CO)OC(C(=O)O)=C[C@@H]1NC(=N)N [(5)] | >10 | 0.42 μg of (A) | 0.35 (≈ 0.212 µM) | – | – | – | – | –
CC(=O)N[C@H]1[C@H]([C@H](O)[C@H](O)CO)OC(C(=O)O)=C[C@@H]1NC(=N)N [Compound (A), 4-guanidino-2-deoxy-2,3-dehydro-N-acetylneuraminic acid, reference compound] | >10 | 0.028 μg of (A) | 0.0095 (≈ 0.0286 µM) | – | – | – | – | 0.009 (≈ 0.0271 µM)
